Patent US8809280B2, “Therapeutic peptides” (Lytix Biopharma AS, priority 2009, dated 2014)
Values after ≈ are worked out from the molar mass of the structure shown. Read-outs that look alike come from different tables or passages of the source.

Experiments:
Type in all cases: cell-based
[1] = system: MRC-5; test: Toxicity assay MRC-5; conditions: highest concentration tested 500 μg/ml; for IC50: Homo sapiens, MRC5, Example 2
Experimental: Cells for Toxicity Studies Used MRC-5 and human RBC MRC-5 assay: 500 μg/ml

[2] = system: Escherichia coli (ATTC 25922); test: microbe, parasite or virus in culture; conditions: for MIC: Escherichia coli; for Therapeutic index E. coli: EC50 RBC divided by MIC
Experimental: (§1) The antimicrobial testing was conducted by TosLab A/S (Tromsø, Norway). Each compound was diluted to 1 mg/ml in water and tested in duplicates at 200, 100, 50, 35, 15, 10, 5, 2.5, 1, 0.5 μg/ml except 4n which was tested at 50, 35, 15, 10, 5, 2.5, 1, 0.5 μg/ml due to solubility problems. All tested compounds were di TFA salts.
(§2) The bacterial strains were grown in 2% Bacto Peptone water until exponential growth was achieved. […] A bacterial concentration of 2×10^6 cfu/ml was used. Both negative control (no peptide) and positive control (Gentamicin) was used for all bacterial strains. Growth or no growth was judged by the turbidity of the wells.
Escherichia coli (ATTC 25922)
(§3) Antimicrobial assays: 200 μg/ml
(§4) Suitable methodologies are described in Example 1.
(§5) Each compound was tested in duplicates at 200, 100, 50, 35, 15, 10, 5, 2.5, 1, 0.5 μg/ml. All tested compounds were di-trifluoroacetic acid salts.

[3] = system: human red blood cells; test: cells; conditions: Erythrocyte, highest concentration tested 1000 μg/ml
Experimental: The hemolytic testing against human erythrocytes was conducted by Lytix Biopharma A/S (Tromso, Norway). Each compound was tested from a concentration of 1 mg/ml and lower, except 4k and 4n which was only tested up to 0.5 mg/ml due to solubility problems. 8 mL of blood was collected from adult healthy male donors. The blood was divided equally and distributed in a commercial available EDTA containing test tube (BD vacutainer, 7.2 mg K2 EDTA) and in a 10 mL reaction vial containing 40 μL of a heparin solution (1000 U/mL in 0.9% sodium chloride). After 30 minutes the hematocrit of the EDTA treated blood was determined. The heparinized blood was centrifuged for 10 minutes at 1500 rpm and the supernatant removed. Subsequently the RBCs were washed with prewarmed PBS three times, and diluted to 10% hematocrit. The compounds dissolved in PBS (concentration 1 μg/mL to 1000 µg/mL) and the erythrocytes were incubated under agitation at 37° C. for one hour. A positive control with an end concentration of 0.1% TRITON X-100 (nonionic surfactant) and a negative control containing pure PBS buffer were included. The samples were centrifuged (4000 rpm) for 5 minutes and the absorption of the supernatant was measured at 405 nm. The values given in Table 1A correspond to 50% hemolysis.
The plasma fraction of heparinized human blood was first removed by centrifugation and three additional washing steps with 37° C. pre-warmed phosphate buffered saline (PBS). Subsequently, the human RBC were diluted to 10% hematocrit and the β^2,2-amino acid derivatives were dissolved in PBS providing concentrations ranging from 1-1000 μg/mL. The diluted RBC were added to the compound solutions to a final erythrocyte concentration of 1% v/v. PBS and TRITON X-100 (non-ionic surfactant), in a final concentration of 0.1% v/v, were included as negative and positive control. After 1 hour agitated incubation at 37° C. the samples were centrifuged at 4000 rpm for 5 min. Release of hemoglobin was determined by measuring the absorbance of the supernatant at 405 nm. Hemolytic activity was calculated as the ratio of treated sample with β^2,2-amino acid derivative and tenside treated sample according to the formula: […]

[4] = system: methicillin resistant Staphylococcus aureus (ATCC 33591); test: microbe, parasite or virus in culture; conditions: for MIC: Staphylococcus aureus; for Therapeutic index MRSA: EC50 RBC divided by MIC
Experimental: as §1, §2
Methicillin resistant Staphylococcus aureus (ATCC 33591)
as §3, §4, §5

[5] = system: Staphylococcus aureus (ATTC 25923); test: microbe, parasite or virus in culture; conditions: for MIC: Staphylococcus aureus; for Therapeutic index S. aureus: EC50 RBC divided by MIC
Experimental: as §1, §2
Staphylococcus aureus (ATTC 25923)
as §3, §4, §5

[6] = system: methicillin resistant Staphylococcus epidermidis (ATCC 27626); test: microbe, parasite or virus in culture; conditions: for MIC: Staphylococcus epidermidis, ATCC 27626 / MRSE; for Therapeutic index MRSE: EC50 RBC divided by MIC
Experimental: as §1, §2
Methicillin resistant Staphylococcus epidermidis (ATCC 27626)
as §3, §4, §5

[7] = Example 2, values separated by / are repeat tests, read-out: Antimicrobial potency (MIC) E. coli
[8] = Homo sapiens, Example 2, * low solubility in the test media, read-out: Toxicity RBC (EC50)
[9] = ATCC 33591 / MRSA, Example 2, values separated by / are repeat tests, read-out: Antimicrobial potency (MIC) MRSA
[10] = Example 2, values separated by / are repeat tests, read-out: Antimicrobial potency (MIC) S. aureus
[11] = Example 2, values separated by / are repeat tests, read-out: Antimicrobial potency (MIC) MRSE
[12] = Example 2, values separated by / are repeat tests
[13] = ATCC25922, Example 4, ATCC 25922, di-trifluoroacetate salts, highest concentration tested 200 μg/ml, read-out: MIC E. coli
[14] = Example 4, hemolytic activity, human red blood cells, read-out: EC50 RBC
[15] = ATCC33591, Example 4, ATCC 33591, di-trifluoroacetate salts, highest concentration tested 200 μg/ml, read-out: MIC MTRSA
[16] = ATCC25923, Example 4, ATCC 25923, di-trifluoroacetate salts, highest concentration tested 200 μg/ml, read-out: MIC S. aureus
[17] = Example 4, ATCC 27626, di-trifluoroacetate salts, highest concentration tested 200 μg/ml, read-out: MIC MRSE

Row | Structure (SMILES) | IC50 [1] [µg/mL] | MIC [2, 7] [µg/mL] | EC50 [3, 8] [µg/mL] | MIC [4, 9] [µg/mL] | MIC [5, 10] [µg/mL] | MIC [6, 11] [µg/mL] | Toxicity MRC-5 ([1]; Example 2) [µg/mL] | Antimicrobial potency (MIC) S. aureus [5, 12] [µg/mL] | Antimicrobial potency (MIC) MRSE [6, 12] [µg/mL] | MIC [2, 13] [µM] | EC50 [3, 14] | MIC [4, 15] [µM] | MIC [5, 16] [µM] | MIC [6, 17] [µM] | Therapeutic index E. coli [2] | Therapeutic index MRSA [4] | Therapeutic index S. aureus [5] | Therapeutic index MRSE [6]
1 | NCCNC(=O)C(CN)(CCc1ccccc1)CCc1ccccc1 [Compound 5, N-(2-aminoethyl)-2-(aminomethyl)-2-phenethyl-4-phenylbutanamide] | 21.5 (≈ 63.3 µM) | > 200 | > 1000 | 100 | 100 | 50 | – | – | – | – | – | – | – | – | – | – | – | –
2 | CC(C)(C)c1cc(CC(CN)(Cc2cc(C(C)(C)C)cc(C(C)(C)C)c2)C(=O)NCCN)cc(C(C)(C)C)c1 [Compound 14, 3-amino-N-(2-aminoethyl)-2,2-bis(3,5-di-tert-butylbenzyl)propanamide] | 7.5 (≈ 14 µM) | – | > 62.5 | 2.5 | 3.75 | 2.5 | 8.5 | 5 | 5 | – | – | – | – | – | – | – | – | –
3 | CN(C)CCNC(=O)C(CN)(Cc1ccc(C(F)(F)F)cc1)Cc1ccc(C(F)(F)F)cc1 [Compound 28, 3-amino-N-(2-(dimethylamino)ethyl)-2,2-bis(4-(trifluoromethyl)benzyl)-propanamide] | – | 35 | 329 | 5 | 10 | 15 | – | – | – | – | – | – | – | – | – | – | – | –
4 | CN1CCN(C(=O)C(CN)(Cc2ccc(C(C)(C)C)cc2)Cc2ccc(C(C)(C)C)cc2)CC1 [Compound 29, 3-amino-2,2-bis(4-tert-butylbenzyl)-1-(4-methylpiperazin-1-yl)propan-1-one] | – | 10 | 241 | 10 | 10 | 5 | – | – | – | – | – | – | – | – | – | – | – | –
5 | Cc1cc(C)cc(CC(CN)(Cc2cc(C)cc(C)c2)C(=O)N2CCN(C)CC2)c1 [Compound 30, 3-amino-2,2-bis(3,5-dimethyl-benzyl)-1-(4-methylpiperazin-1-yl)propan-1-one] | – | 200 | > 1000 | 200 | > 200 | 35 | – | – | – | – | – | – | – | – | – | – | – | –
6 | CN1CCN(C(=O)C(CN)(CCCc2ccccc2)CCCc2ccccc2)CC1 [Compound 31, 2-(aminomethyl)-1-(4-methyl-piperazin-1-yl)-5-phenyl-2-(3-phenylpropyl)pentan-1-one] | – | 200 | > 1000 | 200 | 200 | 200 | – | – | – | – | – | – | – | – | – | – | – | –
7 | CN1CCN(C(=O)C(CN)(Cc2ccc3ccccc3c2)Cc2ccc3ccccc3c2)CC1 [Compound 32, 3-amino-1-(4-methylpiperazin-1-yl)-2,2-bis(naphthalen-2-ylmethyl)propan-1-one] | – | 15 | 225 | 5 | 10 | 10 | – | – | – | – | – | – | – | – | – | – | – | –
8 | CN1CCN(C(=O)C(CN)(Cc2ccc(C(F)(F)F)cc2)Cc2ccc(C(F)(F)F)cc2)CC1 [Compound 33, 3-amino-1-(4-methylpiperazin-1-yl)-2,2-bis(4-(trifluoromethyl)benzyl)propan-1-one] | – | 50 | 376 | 10 | 35 | 50 | – | – | – | – | – | – | – | – | – | – | – | –
9 | CN(C)CCN1CCN(C(=O)C(CN)(Cc2ccc(C(C)(C)C)cc2)Cc2ccc(C(C)(C)C)cc2)CC1 [Compound 34, 3-amino-2,2-bis(4-tert-butylbenzyl)-1-(4-(2-(dimethylamino)ethyl)piperazin-1-yl)propan-1-one] | – | 10 | 252 | 10 | 10 | 10 | – | – | – | – | – | – | – | – | – | – | – | –
10 | CN(C)CCN1CCN(C(=O)C(CN)(CCCc2ccccc2)CCCc2ccccc2)CC1 [Compound 36, 2-(aminomethyl)-1-(4-(2-(dimethyl-amino)ethyl)piperazin-1-yl)-5-phenyl-2-(3-phenylpropyl)pentan-1-one] | – | 200 | > 1000 | 50 | 200 | 50 | – | – | – | – | – | – | – | – | – | – | – | –
11 | CN(C)CCN1CCN(C(=O)C(CN)(Cc2ccc3ccccc3c2)Cc2ccc3ccccc3c2)CC1 [Compound 37, 3-amino-1-(4-(2-(dimethylamino)ethyl)piperazin-1-yl)-2,2-bis(naphthalen-2-ylmethyl)propan-1-one] | – | 35 | 301 | 2.5 | 15 | 10 | – | – | – | – | – | – | – | – | – | – | – | –
12 | CN(C)CCN1CCN(C(=O)C(CN)(Cc2ccc(C(F)(F)F)cc2)Cc2ccc(C(F)(F)F)cc2)CC1 [Compound 38, 3-amino-1-(4-(2-(dimethylamino)ethyl)piperazin-1-yl)-2,2-bis(4-(trifluoromethyl)benzyl)propan-1-one] | – | 100 | 862 | 5 | 35 | 50 | – | – | – | – | – | – | – | – | – | – | – | –
13 | CN1CCN(C(=O)C(CN)(CCCc2ccccc2)CCCc2ccccc2)CC1 [Entry 5a] | – | – | – | – | – | – | – | – | – | 315 | > 1000 µg/mL | 315 | 315 | 315 | – | – | – | –
14 | CN1CCN(C(=O)C(CN)(Cc2ccc(C(F)(F)F)cc2)Cc2ccc(C(F)(F)F)cc2)CC1 [Entry 5b] | – | – | – | – | – | – | – | – | – | 70 | 525 µM | 14 | 49 | 70 | 7.5 | 38 | 11 | 7.5
15 | CN(C)CCNC(=O)C(CN)(CCCc1ccccc1)CCCc1ccccc1 [Entry 6a] | – | – | – | – | – | – | – | – | – | 160 | 507 µM | 56 | 56 | 56 | 3.2 | 9.1 | 9.1 | 9.1
16 | CN(C)CCNC(=O)C(CN)(Cc1ccc(C(F)(F)F)cc1)Cc1ccc(C(F)(F)F)cc1 [Entry 6b] | – | – | – | – | – | – | – | – | – | 50 | 468 µM | 7.1 | 14 | 21 | 9.4 | 66 | 33 | 22
17 | NCCNC(=O)C(CN)(CCCc1ccccc1)CCCc1ccccc1 [Entry 7a] | – | – | – | – | – | – | – | – | – | 336 | 1380 µM | 59 | 71 | 25 | 4.1 | 23 | 19 | 55
18 | NCCNC(=O)C(CN)(Cc1ccc(C(F)(F)F)cc1)Cc1ccc(C(F)(F)F)cc1 [Entry 7b] | – | – | – | – | – | – | – | – | – | 52 | 425 µM | 7.4 | 15 | 15 | 8 | 57 | 28 | 28
